Test results reported in patent US5484778A, “Phthalocyanine photosensitizers for photodynamic therapy and methods for their use” (priority 1993, dated 1996).
“Also recorded” adds a separate entry of the source.

How the values were obtained:
L5178Y cells = test: Induction of apoptosis (DNA fragmentation) in L5178Y-R cells (Table 6); type: cell-based, mouse; conditions: for apoptosis (in words): various concentrations and fluences
Protocol: (§1) Mouse lymphoma L5178y-R (hereinafter also referred to as "LY-R") cells were grown in suspension culture as described in Ramakrishnan N., Oleinick, N. L. Clay, M. E., Horng, M. F., Antunez, A. R., and Evans H. H., DNA lesions and DNA degradation in mouse lymphoma L5178Y cells after photodynamic treatment sensitized by chloroaluminum phthalocyanine. Photochem. Photobiol. 50, 373-378, 1989 and Agarwal, M. L., Clay, M. E., Harvey, E. J., Evans, H. H., Antunez, A. R., and Oleinick, N. L. Photodynamic therapy induces rapid cell death by apoptosis in L5178Y mouse lymphoma cells. Cancer Res., 51, 5993-5996, 1991.
(§2) The cells were used while in exponential growth. Stock solutions of either 0.5 or 1 mM of PcIV, PcXII, PcX, PcXVIII were prepared in dimethylformamide unless otherwise indicated and added to the 10 mL medium at a rate of 1 μL per mL. After allowing 18 hours for uptake of the phthalocyanine into the cells, the flasks containing the cultures were placed on a glass exposure tray above a 500-W tungsten-halogen lamp. The exposure tray was fitted with a 600-nm high-pass filter. Flasks were exposed to various fluences of red light (up to 30 kJ/m^2) at a fluence rate of approximately 74 W/m^2). After irradiation, the cells were collected by centrifugation.
(§3) For measurement of clonogenic cell survival, aliquots were plated in medium containing soft agar as described in Ramakrishnan N., Oleinick, N. L. Clay, M. E., Horng, M. F., Antunez, A. R., and Evans H. H., DNA lesions and DNA degradation in mouse lymphoma L5178Y cells after photodynamic treatment sensitized by chloroaluminum phthalocyanine. Photochem. Photobiol. 50, 373-378, 1989. The aliquots were plated in sufficient numbers to produce 50-200 colonies. The dishes were kept in an incubator at 37° C. in an atmosphere of 5% CO2 and 95% air for 10-14 days to allow viable cells to form colonies. Colonies were counted by eye. Controls treated with the phthalocyanine alone had plating efficiencies of ~90%. The plating efficiencies of the treated cells are normalized to the plating efficiencies of control cells in each experiment. For measurement of the induction of apoptosis, DNA was isolated from the treated and control cells 2 hours after photodynamic therapy, subjected to electrophoresis on 1.5% agarose, stained with ethidium bromide, and visualized by UV transillumination, as described in Agarwal et. al. The results are shown in Tables 4, 5 and 6 and in FIG. 3.
Cells were treated with various concentrations of the compounds listed in the table and various light fluences. DNA gels were prepared and examined for the characteristic "ladder" pattern of DNA fragments. For each Pc, the minimum total PDT dose tested (calculated as the product of the minimum phthalocyanine concentration and the minimum fluence) which produced visible DNA fragments is recorded. […] PcXVIII was also added at 0.5 and 1.0 μM.

V79 cells [1] = test: Clonogenicity, killing of V79 cells using photodynamic therapy (Table 3); type: cell-based, Chinese hamster; conditions: for photosensitizing activity, killing V79 cells (in words): discussion of Table 3
Protocol: Using the cell culture methods described above, V79 cells Chinese hamster lung fibroblasts were treated with either 0.5 or 1.0 μM of the phthalocyanines listed in Table 3. About 18 hours thereafter, the cells were irradiated with increasing doses of 675 nm broad band red light from a 500 W tungsten-halogen lamp fitted with a 600 nm high pass filter, to determine the light dosage that would kill 90% of the phthalocyanine treated cells. Where 90% of the cells were not killed, the maximum percent of cells killed were determined, (expressed as % survival) and the related light dosage recorded.

V79 cells [2] = tested on: V79 cells
Protocol: V79 cells Chinese hamster lung fibroblasts were cultured using the cell culture methods described above. […] When the filters were dry, the phthalocyanines were extracted into ethanol and the absorption determined at the peak wavelength, usually 668 nm.

RIF-1 tumors = test: PDT of RIF-1 implanted tumors (Table 7); type: in vivo, C3H/HeN mice; conditions: for effect on tumor volume / growth (in words): 1 mg/kg; for Doubling Time of Initial Tumor Volume after PDT: 1 mg/kg in corn oil, 675 nm, 135 J/cm^2
Protocol: The relative effectiveness at reducing tumor volume of selected phthalocyanine compounds at a given dosage was compared in vivo. RIF-1, i.e., radiation-induced fibrosarcoma, tumors were implanted into the backs of C3H/HeN mice. One tumor was implanted per mouse. Each of the phthalocyanine compounds listed in Table 7 was sonicated and vortexed in corn oil to produce a suspension. When the tumors reached […] in diameter and 2-3 mm in thickness, each mouse received 1 mg/kg in 0.1 ml of the corn oil, of the phthalocyanine suspension. For comparison, select mice received a conventional photosensitizer; either 5 mg/kg of chloroaluminum phthalocyanine tetrasulfonate, herein also referred to as "AlPcTS" in phosphate buffered saline or 5 mg/kg of Photofrin®-II in 5% dextrose. Twenty-four hours after the photosensitizers were administered, the tumors were irradiated with visible radiation delivered by an argon-pumped dye laser. The mice that received a phthalocyanine photosensitizer received light having a wavelength of 675 nm and the mice that received the Photofrin® II photosensitizer received light having a wavelength of 630 nm. Each tumor received 135 J/cm^2 of radiation. Tumor size was measured every day using calipers. The initial tumor volume was 50±10 mm^3. Tumor volume was calculated according to the hemiellipsoid model by the formula: [formula] Where l is length Where W is width

L5178Y-R (LY-R) cells = test: Clonogenic survival of PDT-treated L5178Y-R cells (Tables 4 and 5, FIG. 3); type: cell-based, mouse; conditions: 0.5 μM; for activity relative to PcXII: from Table 5; for LD 90: fluence reducing survival to 10%; for LD50: fluence reducing survival to 50%
Protocol: as §1, §2, §3
In Table 4 each phthalocyanine was present at 0.5 μM, and the normalized plating efficiencies are presented as mean and standard deviation at each fluence tested. […] This relative activity of these four phthalocyanines is the same as obtained from screening in V79 cells.
PcXII when present in the culture medium at 0.5 μM requires less light, that is the lowest fluence, to kill either 50% […] of the cells. PcIV is about 80% as active as PcXII, PcX is 44% as active as PcXII and PcXVIII is 22% as active as PcXII.

[3] = 0.5 μM, 18 h, light dose killing 90% of cells

Compound | Minimum Demonstrated Condition to induce apoptosis: C × F (L5178Y cells; 0.5 μM) | Minimum Demonstrated Condition to induce apoptosis: Fluence (L5178Y cells; 0.5 μM) | Minimum Demonstrated Condition to induce apoptosis: C × F (L5178Y cells; 1.0 μM) | Minimum Demonstrated Condition to induce apoptosis: Fluence (L5178Y cells; 1.0 μM) | apoptosis (in words) (L5178Y cells) | Uptake (from Table 2) (V79 cells [2]) | Uptake into V79 cells, composite value (V79 cells [2]) | effect on tumor volume / growth (in words) (RIF-1 tumors) | Doubling Time of Initial Tumor Volume after PDT (RIF-1 tumors) | LD 90 (V79 cells [1]; [3]) | also measured
C[Si](C)(CCCCNS(C)(=O)=O)O[Si]1(O)n2c3c4ccccc4c2N=C2N=C(N=c4c5ccccc5c(n41)=NC1=NC(=N3)c3ccccc31)c1ccccc12 (centres unmarked) [Compound IX, HOSiPCOSi(CH3)2 (CH2)4 NHSO2 CH3] | 4.0 μm × kJ/m^2 | 8.0 kJ/m^2 | 12.0 μm × kJ/m^2 | 12.0 kJ/m^2 | activity increases and then decreases as the concentration is raised | 0.3 n Moles/10^6 cells/μM | 0.3 n Moles/10^6 cells/μM | particularly effective in reducing tumor volume | 11 days |  | Minimum Demonstrated Condition to induce apoptosis: C × F (L5178Y cells; 0.3 μM): 3.6 μm × kJ/m^2; Minimum Demonstrated Condition to induce apoptosis: Fluence (L5178Y cells; 0.3 μM): 12.0 kJ/m^2; Maximum Effect (% survival) (V79 cells [1]; 0.5 μM, at 9 kJ/m^2): 44%
C[Si](C)(CCCCN)O[Si]1(O[Si](C)(C)CCCCN)n2c3c4ccccc4c2N=C2N=C(N=c4c5ccccc5c(n41)=NC1=NC(=N3)c3ccccc31)c1ccccc12 [Compound VII, SiPc[OSi(CH3)2 (CH2)4 NH2]2] | 1.5 μm × kJ/m^2 | 3.0 kJ/m^2 |  |  |  | 0.2 n Moles/10^6 cells/μM | 0.2 n Moles/10^6 cells/μM |  |  |  | LD 90 (V79 cells [1]; 0.5 μM, preplated data only): 4 kJ/m^2; photosensitizing activity, killing V79 cells (in words) (V79 cells [1]; listed as PcVII): most active at killing V79 cells; also recorded: one of the better photosensitizers; uptake by V79 cells (in words) (V79 cells [2]): poor uptake
CCN(CCC[Si](C)(C)O[Si]1(O)n2c3c4ccccc4c2N=C2N=C(N=c4c5ccccc5c(n41)=NC1=NC(=N3)c3ccccc31)c1ccccc12)CCN(C)C (centres unmarked) [Compound X, HOSiPcOSi(CH3)2 (CH2)3 N(CH2 CH3)(CH2)2 N(CH3)2] | 3.0 μm × kJ/m^2 | 6.0 kJ/m^2 | 3.0 μm × kJ/m^2 | 3.0 kJ/m^2 | the same minimum value for the C×F product was obtained in both cases | 0.7 n Moles/10^6 cells/μM | 0.7 n Moles/10^6 cells/μM |  |  | 7 kJ/m^2 | photosensitizer activity in LY-R cells (in words) (L5178Y-R (LY-R) cells): active photosensitizers; activity relative to PcXII (L5178Y-R (LY-R) cells): 44%; LD 90 (L5178Y-R (LY-R) cells): 4.19 kJ/m^2; LD50 (L5178Y-R (LY-R) cells): 2.38 kJ/m^2
CCN(CCC[Si](C)(C)O[Si]1(O[Si](C)(C)CCCN(CC)CCN(C)C)n2c3c4ccccc4c2N=C2N=C(N=c4c5ccccc5c(n41)=NC1=NC(=N3)c3ccccc31)c1ccccc12)CCN(C)C [Compound XVIII, SiPc[OSi(CH3)2 (CH2)3 N(CH2 CH3)(CH2)2 N(CH3)2]2] | 5.0 μm × kJ/m^2 | 10.0 kJ/m^2 | 3.0 μm × kJ/m^2 | 3.0 kJ/m^2 | minimum value of C×F differed only slightly for the two conditions |  |  | particularly effective in reducing tumor volume | 12 days |  | LD 90 (V79 cells [1]; 1 μM, 18 h): 7 kJ/m^2; photosensitizing activity, killing V79 cells (in words) (V79 cells [1]): good activity; activity relative to PcXII (L5178Y-R (LY-R) cells): 22%; LD 90 (L5178Y-R (LY-R) cells): 7.81 kJ/m^2; LD50 (L5178Y-R (LY-R) cells): 5.00 kJ/m^2; photosensitizer activity in LY-R cells (in words) (L5178Y-R (LY-R) cells; listed as PcXVIII): active photosensitizers; also recorded: least active
CN1CCN(CCC[Si](C)(C)O[Si]2(O)n3c4c5ccccc5c3N=C3N=C(N=c5c6ccccc6c(n52)=NC2=NC(=N4)c4ccccc42)c2ccccc23)CC1 (centres unmarked) [Compound XXVIII, HOSiPcOSi(CH3)2 (CH2)3 NC4 H8 NCH3] |  |  |  |  |  |  |  |  | 24 days | 1.8 kJ/m^2 | Minimum Demonstrated Condition to induce apoptosis: C × F (L5178Y cells; 0.3 μM): 0.9 μm × kJ/m^2; Minimum Demonstrated Condition to induce apoptosis: Fluence (L5178Y cells; 0.3 μM): 3.0 kJ/m^2; photosensitizing activity, killing V79 cells (in words) (V79 cells [1]; listed as Pc XXVIII): photodynamic killing efficiency is superior to PcXII; photosensitizing activity, killing V79 cells (in words) (V79 cells [1]; listed as PcXXVIII): most active at killing V79 cells; also recorded: highest activity in killing V79 cells of all of the phthalocyanines; effect on tumor volume / growth (in words) (RIF-1 tumors; listed as Pc XXVIII): significantly impair the growth of the tumors; effect on tumor volume / growth (in words) (RIF-1 tumors; listed as PcXXVIII): particularly effective in reducing tumor volume
HOSiPcOSi(CH3)2 (CH2)3 N[(CH2)3 N(CH3)2 ]2 [Compound XXVII] |  |  |  |  |  | 1.5 n Moles/10^6 cells/μM | 1.5 n Moles/10^6 cells/μM |  |  | 6.8 kJ/m^2 | uptake by V79 cells (in words) (V79 cells [2]): taken up particulary well
SiPc[OSi(CH3)2 (CH2)4 NHSO2 CH3 ]2 [Compound VIII] |  |  |  |  |  | 0.2 n Moles/10^6 cells/μM | 0.2 n Moles/10^6 cells/μM | the doubling of tumor volume was delayed in the animals treated with each of the compounds except PcVIII | 4 days |  | induction of apoptosis (L5178Y cells; 1 μM at a fluence of 30 kJ/m^2): did not induce apoptosis; Maximum Effect (% survival) (V79 cells [1]; 1 μM, at 30 kJ/m^2): 94%
